These results are taken from US9949965B2, “Tricyclic indole Mcl-1 inhibitors and uses thereof” (priority 2014, dated 2018).

In test [1] the target is T1, Bcl-xL (residues 1-209, loop 45-86 deleted) (Homo sapiens, UniProt Q07817, DEL45-86).
T1 construct: Bcl-xL (residues 1-209, loop 45-86 deleted)
As to the kind of experiment: biochemical. The class given is binding. The settings on record: Table 3; 10 nM FITC-Bak, 4 nM Bcl-xL; top concentration 20 uM. As for the experimental part: (§1) Bak Peptide Binding Assay
(§2) Compound affinity was measured using a fluorescence polarization anisotropy competition assay. Anisotropy measurements were carried out in 384-well, black, flat-bottom plates (Greiner Bio-one, Monroe, N.C., USA). The assay was run using a fluorescein isothiocyanate-labeled BH3 peptide derived from Bak (FITC-AHx-[…] […] H2) (SEQ ID NO: 1) that was purchased from GenScript (Piscataway, N.J.) at >95% purity and used without further purification. 10 nM FITC-Bak peptide and 14 nM recombinant Mcl-1 (residues 172-327) were added to assay buffer (3 mM dithiothreitol, 50 mM NaCl, 20 mM Tris, pH 7.5). For selectivity assays, 40 nM Bcl-2 (residues 1-207^A96T,G110R, Δ35-91, replaced with Bcl-xL35-50) or 4 nM Bcl-xL (residues 1-209, loop 45-86 deleted) were incubated with 10 nM FITC-Bak in assay buffer.
(§3) Compounds are diluted in DMSO in a 10-point, 3-fold serial dilution scheme. 2.5 uL compound is added to 47.5 uL of assay buffer containing FITC-Bak and protein, for a final DMSO concentration of 5% and a top concentration of 20 uM. […] The plate was mixed and incubated for 90 minutes at room temperature. Anisotropy is measured at excitation wavelength 480 nm and emission wavelength 535 nm using an EnVision Multi-label plate reader (PerkinElmer, Wellesley, Mass., USA). Fluorescence anisotropy is plotted against compound concentration to generate an IC50 (inhibitor concentration at which 50% of bound peptide is displaced) by fitting the data to a 4-parameter logistic model using XLFit software (Guildford, Surrey, UK). IC50 is converted to a binding dissociation constant (Ki value) according to the formula of Wang Z. FEBS Lett (1996) 3, 245: Ki=[I]50/([L]50/Kd+[P]0/Kd+1) where [I]50 is the concentration of the free inhibitor at 50% inhibition, [L]50 is the concentration of the free labeled ligand at 50% inhibition, [P]0 is the concentration of the free protein at 0% inhibition, Kd represents the dissociation constant of the FITC peptide probe.

The target of test [2] is T2, recombinant Mcl-1 (residues 172-327) (Homo sapiens, UniProt Q07820).
T2 construct: 14 nM recombinant Mcl-1 (residues 172-327) were added to assay buffer
Nature of the test: Bak peptide binding assay: fluorescence polarization anisotropy competition (FITC-Bak BH3 peptide). The following applies: 10 nM FITC-Bak, 14 nM Mcl-1, Ki converted from IC50. As for the experimental part: as §1, §2, §3
(In fluorescence polarisation assays a small probe gives low polarisation when free and higher when bound to something large.)

Where two headings read alike, the source gives them in different places. Where only a bound is given, the exact number is not on record here.

T2 sequence (Q07820 172-327): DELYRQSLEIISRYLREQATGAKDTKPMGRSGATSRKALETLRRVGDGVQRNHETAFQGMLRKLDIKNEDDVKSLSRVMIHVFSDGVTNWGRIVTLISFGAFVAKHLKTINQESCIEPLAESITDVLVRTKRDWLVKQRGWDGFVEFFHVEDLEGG
T1 sequence (Q07817 other isoform, or with tags, fused parts or gaps DEL45-86): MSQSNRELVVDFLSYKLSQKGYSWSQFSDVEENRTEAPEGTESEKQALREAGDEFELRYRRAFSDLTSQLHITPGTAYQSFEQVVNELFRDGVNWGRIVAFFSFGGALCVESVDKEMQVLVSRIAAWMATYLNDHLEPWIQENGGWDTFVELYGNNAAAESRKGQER

One may read the Ki as the equilibrium dissociation constant of an inhibitor or competing ligand from its target. As to `Cc1cc(OCCCc2c(C(=O)O)n3c4c(cccc24)SCC3)cc(C)c1Cl` [Example 13, 6-(3-(4-chloro-3,5-dimethylphenoxy)propyl)-2,3-dihydro-[1,4]thiazino[2,3,4-hi]indole-5-carboxylic acid], the Ki was more than 20 µM in test [1]; not above 100 nM in test [2] (Ki For Inhibition of Mcl-I Protein, Table 2, binned range); 71 nM in test [2] (Table 3, read-out: Ki Mcl-1).
